Results published in ChEMBL document CHEMBL3232711, “Novel inhibitors of the MDM2-p53 interaction featuring hydrogen bond acceptors as carboxylic acid isosteres” (J Med Chem, 2014).

What was measured:
[1] = Intrinsic clearance in human hepatocytes measured per 10^6 cells; assay type: ADME, cell-based, Hepatocyte; conditions: read-out: CLH
[2] = Clearance in rat at 0.5 mg/kg, iv; assay type: ADME, organism-based; parameters: dose 0.5 mg/kg, route intravenous; conditions: in vivo
[3] = Half life in rat at 0.5 mg/kg, iv; assay type: ADME, organism-based; parameters: dose 0.5 mg/kg, route intravenous; conditions: in vivo
[4] = Volume of distribution at steady state in rat at 0.5 mg/kg, iv; assay type: ADME, organism-based; parameters: dose 0.5 mg/kg, route intravenous; conditions: in vivo, read-out: Vdss
[5] = Clearance in mouse at 0.5 mg/kg, iv; assay type: ADME, organism-based; parameters: dose 0.5 mg/kg, route intravenous; conditions: in vivo
[6] = Half life in mouse at 0.5 mg/kg, iv; assay type: ADME, organism-based; parameters: dose 0.5 mg/kg, route intravenous; conditions: in vivo
[7] = Volume of distribution at steady state in mouse at 0.5 mg/kg, iv; assay type: ADME, organism-based; parameters: dose 0.5 mg/kg, route intravenous; conditions: in vivo, read-out: Vdss
[8] = Oral bioavailability in mouse at 5 mg/kg; assay type: ADME, organism-based; conditions: in vivo
[9] = Drug metabolism in mouse hepatocytes assessed as oxidative metabolite formation at 10 uM after 2 hrs by LC-MS/MS analysis; assay type: ADME, cell-based, Hepatocyte
[10] = Drug metabolism in rat hepatocytes assessed as oxidative metabolite formation at 10 uM after 2 hrs by LC-MS/MS analysis; assay type: ADME, cell-based, Hepatocyte
[11] = Drug metabolism in dog hepatocytes assessed as oxidative metabolite formation at 10 uM after 2 hrs by LC-MS/MS analysis; assay type: ADME, cell-based, Canis lupus familiaris, Hepatocyte
[12] = Drug metabolism in monkey hepatocytes assessed as oxidative metabolite formation at 10 uM after 2 hrs by LC-MS/MS analysis; assay type: ADME, cell-based, Macaca mulatta, Hepatocyte; conditions: rhesus monkey
[13] = Drug metabolism in human hepatocytes assessed as oxidative metabolite formation at 10 uM after 2 hrs by LC-MS/MS analysis; assay type: ADME, cell-based, Hepatocyte
[14] = Drug metabolism in mouse hepatocytes assessed as 2-(2-(((3R,5R,6S)-1-((S)-2-(tert-butylsulfonyl)-1-cyclopropylethyl)-6-(4-chloro-3-fluorophenyl)-5-(3-chlorophenyl)-3-methyl-2-oxopiperidin-3-yl)methyl)thiazol-5-yl)acetic acid formation at 10 uM after 2 hrs by LC-MS/MS analysis; assay type: ADME, cell-based, Hepatocyte
[15] = Drug metabolism in rat hepatocytes assessed as 2-(2-(((3R,5R,6S)-1-((S)-2-(tert-butylsulfonyl)-1-cyclopropylethyl)-6-(4-chloro-3-fluorophenyl)-5-(3-chlorophenyl)-3-methyl-2-oxopiperidin-3-yl)methyl)thiazol-5-yl)acetic acid formation at 10 uM after 2 hrs by LC-MS/MS analysis; assay type: ADME, cell-based, Hepatocyte
[16] = Drug metabolism in dog hepatocytes assessed as 2-(2-(((3R,5R,6S)-1-((S)-2-(tert-butylsulfonyl)-1-cyclopropylethyl)-6-(4-chloro-3-fluorophenyl)-5-(3-chlorophenyl)-3-methyl-2-oxopiperidin-3-yl)methyl)thiazol-5-yl)acetic acid formation at 10 uM after 2 hrs by LC-MS/MS analysis; assay type: ADME, cell-based, Canis lupus familiaris, Hepatocyte
[17] = Drug metabolism in monkey hepatocytes assessed as 2-(2-(((3R,5R,6S)-1-((S)-2-(tert-butylsulfonyl)-1-cyclopropylethyl)-6-(4-chloro-3-fluorophenyl)-5-(3-chlorophenyl)-3-methyl-2-oxopiperidin-3-yl)methyl)thiazol-5-yl)acetic acid formation at 10 uM after 2 hrs by LC-MS/MS analysis; assay type: ADME, cell-based, Macaca mulatta, Hepatocyte; conditions: rhesus monkey
[18] = Drug metabolism in human hepatocytes assessed as 2-(2-(((3R,5R,6S)-1-((S)-2-(tert-butylsulfonyl)-1-cyclopropylethyl)-6-(4-chloro-3-fluorophenyl)-5-(3-chlorophenyl)-3-methyl-2-oxopiperidin-3-yl)methyl)thiazol-5-yl)acetic acid metabolite formation at 10 uM after 2 hrs by LC-MS/MS analysis; assay type: ADME, cell-based, Hepatocyte

`CC(C)(C)S(=O)(=O)C[C@H](C1CC1)N1C(=O)[C@@](C)(Cc2ccc(C(=O)O)cn2)C[C@H](c2cccc(Cl)c2)[C@H]1c1ccc(Cl)cc1` showed a hepatocyte CLint [1] of 10 µL/min/1e6 cells, a clearance [2] of 6 mL/min/kg and a half-life [3] of 108 min. It also gave a Vd [4] of 0.41 L/kg, a clearance [5] of 3.83 mL/min/kg and a half-life [6] of 168 min. It also gave a Vd [7] of 0.57 L/kg and a bioavailability [8] of 60%.
In the case of `CC(C)(C)S(=O)(=O)C[C@H](C1CC1)N1C(=O)[C@@](C)(Cc2ncc(CC(=O)O)s2)C[C@H](c2cccc(Cl)c2)[C@H]1c1ccc(Cl)c(F)c1`, the hepatocyte CLint [1] is reported as 5.5 µL/min/1e6 cells, the clearance [2] is reported as 3.83 mL/min/kg and the half-life [3] is reported as 264 min. It also gave a Vd [4] of 0.27 L/kg, a clearance [5] of 2.5 mL/min/kg and a half-life [6] of 192 min. For the same molecule, the Vd [7] was 0.35 L/kg, the bioavailability [8] was 56% and the Drug metabolism [9] was “metabolite_detected”. The Drug metabolism [10] was “metabolite_detected”, the Drug metabolism [11] was “metabolite_detected” and the Drug metabolism [12] was “metabolite_detected”. For the same molecule, the Drug metabolism [13] was “metabolite_detected”, the Drug metabolism [14] was “metabolite_notdetected” and the Drug metabolism [15] was “metabolite_notdetected”. For the same molecule, the Drug metabolism [16] was “metabolite_notdetected”, the Drug metabolism [17] was “metabolite_notdetected” and the Drug metabolism [18] was “metabolite_notdetected”.
For `CC(C)(C)S(=O)(=O)C[C@H](C1CC1)N1C(=O)[C@@](C)(Cc2nc(CC(=O)O)cs2)C[C@H](c2cccc(Cl)c2)[C@H]1c1ccc(Cl)cc1`, the hepatocyte CLint [1] was 5.3 µL/min/1e6 cells.
`CC(C)(C)S(=O)(=O)C[C@H](C1CC1)N1C(=O)[C@@](C)(Cc2ccc(C(=O)O)cn2)C[C@H](c2cccc(Cl)c2)[C@H]1c1ccc(Cl)c(F)c1` gave a hepatocyte CLint [1] of 7.8 µL/min/1e6 cells.
With `CC(C)(C)S(=O)(=O)C[C@H](C1CC1)N1C(=O)[C@@](C)(Cc2ccc(CC(=O)O)cn2)C[C@H](c2cccc(Cl)c2)[C@H]1c1ccc(Cl)cc1` the hepatocyte CLint [1] was 3.4 µL/min/1e6 cells.
With `CC(C)(C(=O)O)c1ccc(C[C@@]2(C)C[C@H](c3cccc(Cl)c3)[C@@H](c3ccc(Cl)cc3)N([C@H](CS(=O)(=O)C(C)(C)C)C3CC3)C2=O)nc1` the hepatocyte CLint [1] was < 0.1 µL/min/1e6 cells.
In the case of `Cc1nc(C[C@@]2(C)C[C@H](c3cccc(Cl)c3)[C@@H](c3ccc(Cl)cc3)N([C@H](CS(=O)(=O)C(C)(C)C)C3CC3)C2=O)ccc1C(=O)O`, the hepatocyte CLint [1] is reported as 26 µL/min/1e6 cells.
`Cc1cc(C[C@@]2(C)C[C@H](c3cccc(Cl)c3)[C@@H](c3ccc(Cl)cc3)N([C@H](CS(=O)(=O)C(C)(C)C)C3CC3)C2=O)ncc1C(=O)O` showed a hepatocyte CLint [1] of 5.1 µL/min/1e6 cells.
Work on `CC(C)(C)S(=O)(=O)C[C@H](C1CC1)N1C(=O)[C@@](C)(Cc2ncc(C(=O)O)cn2)C[C@H](c2cccc(Cl)c2)[C@H]1c1ccc(Cl)cc1` yielded a hepatocyte CLint [1] of 10 µL/min/1e6 cells.
`CC(C)(C)S(=O)(=O)C[C@H](C1CC1)N1C(=O)[C@@](C)(Cc2ncc(C(=O)O)cn2)C[C@H](c2cccc(Cl)c2)[C@H]1c1ccc(Cl)c(F)c1` showed a hepatocyte CLint [1] of 14 µL/min/1e6 cells.
For `CC(C)(C)S(=O)(=O)C[C@H](C1CC1)N1C(=O)[C@@](C)(Cc2cnc(C(=O)O)cn2)C[C@H](c2cccc(Cl)c2)[C@H]1c1ccc(Cl)cc1`, the hepatocyte CLint [1] was 25 µL/min/1e6 cells.
Molecule `CC(C)(C)S(=O)(=O)C[C@H](C1CC1)N1C(=O)[C@@](C)(Cn2cc(C(=O)O)cn2)C[C@H](c2cccc(Cl)c2)[C@H]1c1ccc(Cl)cc1` has a hepatocyte CLint [1] of 2.8 µL/min/1e6 cells.
For `CC(C)(C)S(=O)(=O)C[C@H](C1CC1)N1C(=O)[C@@](C)(Cc2nc(C(=O)O)cs2)C[C@H](c2cccc(Cl)c2)[C@H]1c1ccc(Cl)cc1`, the hepatocyte CLint [1] was 1.8 µL/min/1e6 cells.
`CC(C)(C)S(=O)(=O)C[C@H](C1CC1)N1C(=O)[C@@](C)(Cc2ncc(C(=O)O)s2)C[C@H](c2cccc(Cl)c2)[C@H]1c1ccc(Cl)cc1` gave a hepatocyte CLint [1] of 8.7 µL/min/1e6 cells, a clearance [2] of 3.17 mL/min/kg and a half-life [3] of 216 min. For the same molecule, the Vd [4] was 0.18 L/kg, the clearance [5] was 5.83 mL/min/kg and the half-life [6] was 198 min. It also gave a Vd [7] of 0.67 L/kg and a bioavailability [8] of 18%.
With `CC(C)(C)S(=O)(=O)C[C@H](C1CC1)N1C(=O)[C@@](C)(Cc2ncc(C(=O)CO)s2)C[C@H](c2cccc(Cl)c2)[C@H]1c1ccc(Cl)cc1` the hepatocyte CLint [1] was 47 µL/min/1e6 cells.
With `CC(C)(C)S(=O)(=O)C[C@H](C1CC1)N1C(=O)[C@@](C)(Cc2ncc(C(=O)O)s2)C[C@H](c2cccc(Cl)c2)[C@H]1c1ccc(Cl)c(F)c1` the hepatocyte CLint [1] was 10 µL/min/1e6 cells, the clearance [2] was 1.5 mL/min/kg and the half-life [3] was 138 min. For the same molecule, the Vd [4] was 0.41 L/kg, the clearance [5] was 2.5 mL/min/kg and the half-life [6] was 246 min. It also gave a Vd [7] of 0.53 L/kg and a bioavailability [8] of 36%.
In the case of `CC(C)(C)S(=O)(=O)C[C@H](C1CC1)N1C(=O)[C@@](C)(Cc2nccs2)C[C@H](c2cccc(Cl)c2)[C@H]1c1ccc(Cl)c(F)c1`, the hepatocyte CLint [1] is reported as 14 µL/min/1e6 cells.
Molecule `CC(C)(C)S(=O)(=O)C[C@H](C1CC1)N1C(=O)[C@@](C)(Cc2ncc(CC(=O)O)s2)C[C@H](c2cccc(Cl)c2)[C@H]1c1ccc(Cl)cc1` has a hepatocyte CLint [1] of 5.8 µL/min/1e6 cells, a clearance [2] of 22.8 mL/min/kg and a half-life [3] of 109 min. For the same molecule, the Vd [4] was 0.74 L/kg, the clearance [5] was 7.17 mL/min/kg and the half-life [6] was 121 min. For the same molecule, the Vd [7] was 0.72 L/kg and the bioavailability [8] was 10%.
Work on `CC(C)(C(=O)O)c1cnc(C[C@@]2(C)C[C@H](c3cccc(Cl)c3)[C@@H](c3ccc(Cl)cc3)N([C@H](CS(=O)(=O)C(C)(C)C)C3CC3)C2=O)s1` yielded a hepatocyte CLint [1] of 3.6 µL/min/1e6 cells.
With `CC(C)(C)S(=O)(=O)C[C@H](C1CC1)N1C(=O)[C@@](C)(Cc2ncc(C3(C(=O)O)CC3)s2)C[C@H](c2cccc(Cl)c2)[C@H]1c1ccc(Cl)cc1` the hepatocyte CLint [1] was 7.7 µL/min/1e6 cells.
For `CC(C)(C)S(=O)(=O)C[C@H](C1CC1)N1C(=O)[C@@](C)(Cc2ncc(C(F)(F)C(=O)O)s2)C[C@H](c2cccc(Cl)c2)[C@H]1c1ccc(Cl)c(F)c1`, the hepatocyte CLint [1] was 4.7 µL/min/1e6 cells.
`CC(C)(C)S(=O)(=O)C[C@H](C1CC1)N1C(=O)[C@@](C)(Cc2ncc(CC(=O)O)o2)C[C@H](c2cccc(Cl)c2)[C@H]1c1ccc(Cl)c(F)c1` showed a hepatocyte CLint [1] of 4.3 µL/min/1e6 cells.
Molecule `CC(C)(C)S(=O)(=O)C[C@H](C1CC1)N1C(=O)[C@@](C)(Cc2nnc(CC(=O)O)[nH]2)C[C@H](c2cccc(Cl)c2)[C@H]1c1ccc(Cl)cc1` has a hepatocyte CLint [1] of 10 µL/min/1e6 cells.
`CC(C)(C)S(=O)(=O)C[C@H](C1CC1)N1C(=O)[C@@](C)(Cc2ncc(CC(=O)O)[nH]2)C[C@H](c2cccc(Cl)c2)[C@H]1c1ccc(Cl)cc1` showed a hepatocyte CLint [1] of 5 µL/min/1e6 cells.
